Measurements published in patent US6288111A (Research Development Foundation, priority 1995, dated 2001).
Read-outs that look alike come from different tables or passages of the source.

Tests used:
[1] = system: melanoma; test: Clinical trial: response of melanoma patients to DDP alone, then TAM/DDP; format: in vivo, human
Excerpt: A complete response was defined as the complete disappearance of all evidence of disease for at least 4 weeks. A partial response was a decrease in the mean diameter of the target lesion by 50% or more lasting at least 4 weeks. A mixed response was a decrease in the diameter of some target lesions of 50% or more while others remained stable or increased in size.
Patients were retreated every 3 weeks. […] Subsequent patients received an ondansetron-based regimen.

[2] = system: T-289 human melanoma cells; test: Development of DDP resistance in T-289 cells (selection with DDP ± TAM, colony formation assay); format: cell-based
[3] = Plasma concentrations of TAM in patients; conditions: predicted from in vitro data
[4] = system: melanoma; conditions: 203 treated melanoma patients; cited from earlier work
[5] = Clinical trial: toxicities with DDP or DDP/TAM treatment; conditions: in words
Excerpt: (§1) Entry requirements included histologically documented melanoma, measurable disease, signed informed consent, and no anti-tumor therapy during the previous 4 weeks. Patients were required to have normal hematologic and renal function, an Eastern Cooperative Oncology Group (ECOG) performance status of 0-2 and an estimated survival of at least 3 months. Patients with a previous history of deep venous thrombosis or pulmonary embolism were excluded.
(§2) Pre-treatment hydration consisted of 1 liter of 5% dextrose/0.45%saline containing 20 mEq of potassium chloride and 2 g magnesium sulfate administered over 4 hours. […] Patients were retreated every 3 weeks. On cycles where TAM was administered, 40 mg p.o. four doses per day were given on day 1 followed by 20 mg p.o. daily thereafter.

[6] = read-out: Steady-state plasma concentration; chronic administration, 10 mg p.o. twice a day; cited from earlier work
[7] = human, in vivo
Excerpt: as §1, §2

[8] = DDP alone: 24 patients, TAM/DDP: 20 patients (19 evaluated), after DDP alone
[9] = DDP alone: 24 patients, TAM/DDP: 20 patients, after DDP alone
[10] = of the 19 patients evaluated for TAM/DDP

Compound: N.N.[Cl][Pt][Cl] [DDP, cis-diamminedichloroplatinum (II)]
- Duration of complete response ([1]; DDP alone, one patient): more than 15 months
- Stable off treatment after partial response ([1]; DDP alone, one patient): ≥ 6 months
- Time to progression after partial response ([1]; DDP alone, one patient): 4 months
- Complete Response (%) ([1]; DDP alone: 24 patients): 4%
- Progressive Disease (number of patients) ([1]; DDP alone: 24 patients (two refused DDP/TAM), TAM/DDP: 20 patients): 19 patients
- Stable Disease (number of patients) ([1]; DDP alone: 24 patients, TAM/DDP: 20 patients): 2 patients
- Mixed Response (number of patients) [1, 8]: 0 patients
- Partial Response (number of patients) [1, 8]: 2 patients
- Complete Response (number of patients) [1, 9]: One
- Partial Response (%) [1, 9]: 8%
- Complete Response (number of patients) ([1]; DDP alone: 24 patients, TAM/DDP: 20 patients, after DDP alone, listed as Cisplatin): 1 patients
- Progressive disease while receiving single agent DDP (number of patients) [1, 10]: 17 patients
- Stable disease while receiving single agent DDP (number of patients) [1, 10]: 2 patients
- Time at which DDP resistance became apparent ([2]; T-289, selection): 200 days
- Rate of emergence of DDP resistance, DDP alone compared with DDP and TAM ([2]; T-289, p<0.01): 2.75 fold

Compound: CC/C(=C(\c1ccccc1)c1ccc(OCCN(C)C)cc1)c1ccccc1 [TAM, tamoxifen]
- Outcome of treatment in words ([1]; TAM and DDP in patients resistant to single agent DDP): can overcome established resistance to DDP in a significant fraction of patients with malignant melanoma
- Effect on development of DDP resistance ([2]; T-289, concurrent DDP and TAM, in words): can delay the development of DDP resistance
- Plasma concentration predicted to be necessary in DDP resistant patients [3]: more than 1.0 μM
- Response rate, single agent TAM [4]: 6%
- Nephrotoxicity [5]: nephrotoxicity was uncommon and unaffected by the administration of TAM
- Overall toxicity / tolerability [5]: No increased toxicity was noted with the addition of TAM to single agent DDP
- Nausea or vomiting ([5]; during hospitalization for ondonsetron): did not increase nausea or vomiting
- concentration [6]: ~290 nM

Compound: Cc1nccn1CC1CCc2c(c3ccccc3n2C)C1=O (stereo not drawn) [ondonsetron]
- Nausea or vomiting [7]: markedly reduced nausea and vomiting during hospitalization
